Assay results as given in the NIST ThermoML archive (doi:10.1021/je900596d).

Conditions: for mass density: Vibrating tube method

FC(F)=C(F)C(F)(F)F [hexafluoropropene]
Conditions	mass density [kg/m3]	vapor or sublimation pressure [kPa]
355.18 K, 9543 kPa, Liquid	1138.93	–
355.18 K, 9592.9 kPa, Liquid	1139.78	–
355.18 K, 9645.5 kPa, Liquid	1140.58	–
355.18 K, 9695.7 kPa, Liquid	1141.39	–
355.18 K, 9747.1 kPa, Liquid	1142.23	–
355.18 K, 9796.2 kPa, Liquid	1143.06	–
355.18 K, 9846.2 kPa, Liquid	1143.79	–
355.18 K, 9896.5 kPa, Liquid	1144.79	–
355.18 K, 9947.2 kPa, Liquid	1145.37	–
355.18 K, 9998.1 kPa, Liquid	1146.19	–
355.24 K, Liquid, Closed cell (Static) method	–	2903
355.27 K, 1.7 kPa, Fluid (supercritical or subcritical phases)	0.1	–
355.27 K, 2.5 kPa, Fluid (supercritical or subcritical phases)	0.14	–
355.27 K, 3.1 kPa, Fluid (supercritical or subcritical phases)	0.19	–
355.27 K, 3.6 kPa, Fluid (supercritical or subcritical phases)	0.23	–
355.27 K, 4.8 kPa, Fluid (supercritical or subcritical phases)	0.28	–
355.27 K, 5.8 kPa, Fluid (supercritical or subcritical phases)	0.37	–
355.27 K, 6.4 kPa, Fluid (supercritical or subcritical phases)	0.38	–
355.27 K, 7.6 kPa, Fluid (supercritical or subcritical phases)	0.44	–
355.27 K, 8.8 kPa, Fluid (supercritical or subcritical phases)	0.47	–
355.27 K, 9.4 kPa, Fluid (supercritical or subcritical phases)	0.5	–
355.27 K, 10 kPa, Fluid (supercritical or subcritical phases)	0.52	–
355.27 K, 11.3 kPa, Fluid (supercritical or subcritical phases)	0.61	–
355.27 K, 12.5 kPa, Fluid (supercritical or subcritical phases)	0.64	–
355.27 K, 13.7 kPa, Fluid (supercritical or subcritical phases)	0.67	–
355.27 K, 15 kPa, Fluid (supercritical or subcritical phases)	0.66	–
355.27 K, 16 kPa, Fluid (supercritical or subcritical phases)	0.83	–
355.27 K, 18.5 kPa, Fluid (supercritical or subcritical phases)	0.93	–
355.27 K, 19.9 kPa, Fluid (supercritical or subcritical phases)	1.04	–
355.27 K, 21.2 kPa, Fluid (supercritical or subcritical phases)	1.09	–
355.27 K, 22.2 kPa, Fluid (supercritical or subcritical phases)	1.15	–
355.27 K, 23.4 kPa, Fluid (supercritical or subcritical phases)	1.24	–
355.27 K, 24.5 kPa, Fluid (supercritical or subcritical phases)	1.28	–
355.27 K, 25.7 kPa, Fluid (supercritical or subcritical phases)	1.37	–
355.27 K, 26.7 kPa, Fluid (supercritical or subcritical phases)	1.39	–
355.27 K, 27.9 kPa, Fluid (supercritical or subcritical phases)	1.42	–
355.27 K, 29.2 kPa, Fluid (supercritical or subcritical phases)	1.46	–
355.27 K, 30.3 kPa, Fluid (supercritical or subcritical phases)	1.62	–
355.27 K, 31.3 kPa, Fluid (supercritical or subcritical phases)	1.64	–
355.27 K, 32.3 kPa, Fluid (supercritical or subcritical phases)	1.71	–
355.27 K, 34.6 kPa, Fluid (supercritical or subcritical phases)	1.82	–
355.27 K, 37.4 kPa, Fluid (supercritical or subcritical phases)	1.95	–
355.27 K, 41.7 kPa, Fluid (supercritical or subcritical phases)	2.14	–
355.27 K, 47.8 kPa, Fluid (supercritical or subcritical phases)	2.49	–
355.27 K, 53.6 kPa, Fluid (supercritical or subcritical phases)	2.8	–
355.27 K, 58 kPa, Fluid (supercritical or subcritical phases)	3.03	–
355.27 K, 62.5 kPa, Fluid (supercritical or subcritical phases)	3.28	–
355.27 K, 67.1 kPa, Fluid (supercritical or subcritical phases)	3.54	–
355.27 K, 71.8 kPa, Fluid (supercritical or subcritical phases)	3.72	–
355.27 K, 76 kPa, Fluid (supercritical or subcritical phases)	4.09	–
355.27 K, 80.2 kPa, Fluid (supercritical or subcritical phases)	4.21	–
355.27 K, 84.7 kPa, Fluid (supercritical or subcritical phases)	4.42	–
355.27 K, 89.7 kPa, Fluid (supercritical or subcritical phases)	4.7	–
355.27 K, 94.5 kPa, Fluid (supercritical or subcritical phases)	4.96	–
355.27 K, 99.2 kPa, Fluid (supercritical or subcritical phases)	5.14	–
355.27 K, 108.4 kPa, Fluid (supercritical or subcritical phases)	5.69	–
355.27 K, 121.7 kPa, Fluid (supercritical or subcritical phases)	6.32	–
355.27 K, 136.3 kPa, Fluid (supercritical or subcritical phases)	7.14	–
355.27 K, 150.1 kPa, Fluid (supercritical or subcritical phases)	7.91	–
355.27 K, 175.9 kPa, Fluid (supercritical or subcritical phases)	9.29	–
355.27 K, 189 kPa, Fluid (supercritical or subcritical phases)	9.98	–
355.27 K, 202.9 kPa, Fluid (supercritical or subcritical phases)	10.67	–
355.27 K, 215.8 kPa, Fluid (supercritical or subcritical phases)	11.37	–
355.27 K, 229.6 kPa, Fluid (supercritical or subcritical phases)	12.15	–
355.27 K, 243.8 kPa, Fluid (supercritical or subcritical phases)	12.89	–
355.27 K, 256.5 kPa, Fluid (supercritical or subcritical phases)	13.54	–
355.27 K, 269.4 kPa, Fluid (supercritical or subcritical phases)	14.27	–
355.27 K, 282.8 kPa, Fluid (supercritical or subcritical phases)	15.02	–
355.27 K, 296.5 kPa, Fluid (supercritical or subcritical phases)	15.74	–
355.27 K, 310.2 kPa, Fluid (supercritical or subcritical phases)	16.52	–
355.27 K, 323.9 kPa, Fluid (supercritical or subcritical phases)	17.3	–
355.27 K, 337.3 kPa, Fluid (supercritical or subcritical phases)	18.03	–
355.27 K, 350.9 kPa, Fluid (supercritical or subcritical phases)	18.72	–
355.27 K, 364 kPa, Fluid (supercritical or subcritical phases)	19.44	–
355.27 K, 377.5 kPa, Fluid (supercritical or subcritical phases)	20.18	–
355.27 K, 390.9 kPa, Fluid (supercritical or subcritical phases)	20.91	–
355.27 K, 410.7 kPa, Fluid (supercritical or subcritical phases)	22.1	–
355.27 K, 423.7 kPa, Fluid (supercritical or subcritical phases)	22.78	–
355.27 K, 436.7 kPa, Fluid (supercritical or subcritical phases)	23.55	–
355.27 K, 449.9 kPa, Fluid (supercritical or subcritical phases)	24.26	–
355.27 K, 463 kPa, Fluid (supercritical or subcritical phases)	25.02	–
355.27 K, 475.5 kPa, Fluid (supercritical or subcritical phases)	25.74	–
355.27 K, 489.9 kPa, Fluid (supercritical or subcritical phases)	26.57	–
355.27 K, 511.2 kPa, Fluid (supercritical or subcritical phases)	27.76	–
355.27 K, 534.4 kPa, Fluid (supercritical or subcritical phases)	29.14	–
355.27 K, 558.1 kPa, Fluid (supercritical or subcritical phases)	30.53	–
355.27 K, 570.3 kPa, Fluid (supercritical or subcritical phases)	31.19	–
355.27 K, 593.4 kPa, Fluid (supercritical or subcritical phases)	32.6	–
355.27 K, 605.4 kPa, Fluid (supercritical or subcritical phases)	33.29	–
355.27 K, 629.1 kPa, Fluid (supercritical or subcritical phases)	34.75	–
355.27 K, 652.5 kPa, Fluid (supercritical or subcritical phases)	36.04	–
355.27 K, 675.6 kPa, Fluid (supercritical or subcritical phases)	37.5	–
355.27 K, 698.5 kPa, Fluid (supercritical or subcritical phases)	38.93	–
355.27 K, 710.6 kPa, Fluid (supercritical or subcritical phases)	39.6	–
355.27 K, 733.2 kPa, Fluid (supercritical or subcritical phases)	40.98	–
355.27 K, 755.9 kPa, Fluid (supercritical or subcritical phases)	42.45	–
355.27 K, 778.4 kPa, Fluid (supercritical or subcritical phases)	43.82	–
355.27 K, 800.7 kPa, Fluid (supercritical or subcritical phases)	45.25	–
355.27 K, 822.7 kPa, Fluid (supercritical or subcritical phases)	46.65	–
355.27 K, 844.7 kPa, Fluid (supercritical or subcritical phases)	48.08	–
355.27 K, 866.4 kPa, Fluid (supercritical or subcritical phases)	49.39	–
355.27 K, 887.6 kPa, Fluid (supercritical or subcritical phases)	50.79	–
355.27 K, 909.3 kPa, Fluid (supercritical or subcritical phases)	52.17	–
355.27 K, 921.7 kPa, Fluid (supercritical or subcritical phases)	53.01	–
355.27 K, 942.8 kPa, Fluid (supercritical or subcritical phases)	54.34	–
355.27 K, 963 kPa, Fluid (supercritical or subcritical phases)	55.68	–
355.27 K, 985.5 kPa, Fluid (supercritical or subcritical phases)	57.29	–
355.27 K, 1007.7 kPa, Fluid (supercritical or subcritical phases)	58.71	–
355.27 K, 1053.4 kPa, Fluid (supercritical or subcritical phases)	61.79	–
355.27 K, 1076.3 kPa, Fluid (supercritical or subcritical phases)	63.38	–
355.27 K, 1097.4 kPa, Fluid (supercritical or subcritical phases)	64.83	–
355.27 K, 1119.1 kPa, Fluid (supercritical or subcritical phases)	66.35	–
355.27 K, 1140.9 kPa, Fluid (supercritical or subcritical phases)	67.89	–
355.27 K, 1162.7 kPa, Fluid (supercritical or subcritical phases)	69.42	–
355.27 K, 1184.6 kPa, Fluid (supercritical or subcritical phases)	70.94	–
355.27 K, 1205.7 kPa, Fluid (supercritical or subcritical phases)	72.55	–
355.27 K, 1226.6 kPa, Fluid (supercritical or subcritical phases)	74.03	–
355.27 K, 1248.5 kPa, Fluid (supercritical or subcritical phases)	75.63	–
355.27 K, 1268.8 kPa, Fluid (supercritical or subcritical phases)	77.12	–
355.27 K, 1291.7 kPa, Fluid (supercritical or subcritical phases)	78.82	–
355.27 K, 1314.5 kPa, Fluid (supercritical or subcritical phases)	80.53	–
355.27 K, 1336.6 kPa, Fluid (supercritical or subcritical phases)	82.25	–
355.27 K, 1358.9 kPa, Fluid (supercritical or subcritical phases)	83.95	–
355.27 K, 1380.8 kPa, Fluid (supercritical or subcritical phases)	85.69	–
355.27 K, 1401.7 kPa, Fluid (supercritical or subcritical phases)	87.28	–
355.27 K, 1423 kPa, Fluid (supercritical or subcritical phases)	89.04	–
355.27 K, 1445 kPa, Fluid (supercritical or subcritical phases)	90.76	–
355.27 K, 1465.4 kPa, Fluid (supercritical or subcritical phases)	92.28	–
355.27 K, 1486.6 kPa, Fluid (supercritical or subcritical phases)	94.07	–
355.27 K, 1509.1 kPa, Fluid (supercritical or subcritical phases)	95.9	–
355.27 K, 1531 kPa, Fluid (supercritical or subcritical phases)	97.69	–
355.27 K, 1552.1 kPa, Fluid (supercritical or subcritical phases)	99.45	–
355.27 K, 1573.2 kPa, Fluid (supercritical or subcritical phases)	101.27	–
